# Results taken from ChEMBL document CHEMBL1140323, “Biaryl ureas as potent and orally efficacious melanin concentrating hormone receptor 1 antagonists for the treatment of obesity” (J Med Chem, 2005).
# pKi: −log10 of the molar value.
# Legend:
# [1] = Area under curve(0-6 h) for the compound administered orally at 10 mg/kg in rat; format: ADME, organism-based; design: time < 6 hr, dose 10 mg/kg, route oral; conditions: in vivo, po
# [2] = target: T1, Melanin-concentrating hormone receptor 1 (Homo sapiens, UniProt Q99705); assay: Inhibition of human melanin concentrating hormone receptor 1
# T1 sequence (Q99705 whole entry): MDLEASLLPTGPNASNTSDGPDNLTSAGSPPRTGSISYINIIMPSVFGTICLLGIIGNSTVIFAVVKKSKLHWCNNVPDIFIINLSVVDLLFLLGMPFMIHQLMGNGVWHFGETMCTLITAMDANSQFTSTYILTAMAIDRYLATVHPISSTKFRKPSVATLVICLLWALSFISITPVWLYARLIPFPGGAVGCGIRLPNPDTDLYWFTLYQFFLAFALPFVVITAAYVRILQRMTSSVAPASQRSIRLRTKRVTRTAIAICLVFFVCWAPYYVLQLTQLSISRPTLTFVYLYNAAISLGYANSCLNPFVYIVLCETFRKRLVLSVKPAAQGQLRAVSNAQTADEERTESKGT
# [3] = target: Sodium-dependent serotonin transporter (Rattus norvegicus, UniProt P31652); assay: Inhibition of 5-hydroxytryptamine reuptake by serotonin transporter
# Chain of Sodium-dependent serotonin transporter (P31652 whole entry): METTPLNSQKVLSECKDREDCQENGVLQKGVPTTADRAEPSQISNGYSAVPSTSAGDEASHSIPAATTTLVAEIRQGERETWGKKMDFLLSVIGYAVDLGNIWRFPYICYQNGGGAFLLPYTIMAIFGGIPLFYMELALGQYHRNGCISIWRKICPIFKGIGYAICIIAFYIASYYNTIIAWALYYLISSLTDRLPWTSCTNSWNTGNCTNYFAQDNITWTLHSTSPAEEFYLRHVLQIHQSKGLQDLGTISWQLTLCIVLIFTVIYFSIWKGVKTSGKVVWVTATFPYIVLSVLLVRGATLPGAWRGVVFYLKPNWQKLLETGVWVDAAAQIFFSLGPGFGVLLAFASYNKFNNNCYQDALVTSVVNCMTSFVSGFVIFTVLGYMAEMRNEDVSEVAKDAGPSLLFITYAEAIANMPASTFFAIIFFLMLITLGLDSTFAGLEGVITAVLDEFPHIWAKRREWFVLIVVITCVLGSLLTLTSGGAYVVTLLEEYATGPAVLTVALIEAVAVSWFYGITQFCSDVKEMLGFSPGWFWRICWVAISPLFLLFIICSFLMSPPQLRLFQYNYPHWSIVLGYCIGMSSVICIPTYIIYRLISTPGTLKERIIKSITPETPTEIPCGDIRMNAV
# [4] = target: T1, Melanin-concentrating hormone receptor 1; assay: Inhibition of calcium influx into cells expressing hMCH-R1 in FLIPR assay; format: functional
# Rattus norvegicus [5] = assay: Ability (3 mg/kg) required to suppression the body weight gain relative to control; format: functional
# Mus musculus [6] = assay: Oral administration (30 mg/kg) required to reduced food intake relative to control at 4 hr post dose; format: functional
# Rattus norvegicus [7] = assay: Ability (10 mg/kg) required to produce a dose dependent decrease in food intake; format: functional
# Rattus norvegicus [8] = assay: Ability (10 mg/kg) required to suppression the body weight gain relative to control; format: functional
# Mus musculus [9] = assay: Oral administration (30 mg/kg) required to reduced food intake relative to control at 6 hr post dose; format: functional
# Mus musculus [10] = assay: Oral administration (30 mg/kg) required to reduced food intake relative to control at 24 hr post dose; format: functional
# Rattus norvegicus [11] = assay: Ability (3 mg/kg) required to produce a dose dependent decrease in food intake; format: functional
compound,measurement,setting,value
N#Cc1cccc(-c2ccc(N(CCN3CCCC3)C(=O)Nc3ccc(C(F)(F)F)c(F)c3)cc2)c1,AUC(0-t) at 6 h,[1],967 ng·h/mL
CN1CCN(CCN(C(=O)Nc2ccc(C(F)(F)F)c(F)c2)c2ccc(-c3cccc(C#N)c3)cc2)CC1,AUC(0-t) at 6 h,[1],542 ng·h/mL
same,pKi,[2],8.09
same,pKi,[3],< 6.00
CN(C)CCN(C(=O)Nc1cc(Cl)cc(Cl)c1)c1ccc(-c2cccc(C#N)c2)cc1,pKi,[2],7.72
N#Cc1cccc(-c2ccc(N(CCN3CC[C@H](O)C3)C(=O)Nc3ccc(C(F)(F)F)c(F)c3)cc2)c1,AUC(0-t) at 6 h,[1],1450 ng·h/mL
same,pKi,[2],8.14
CN(C)CCN(C(=O)Nc1ccc(F)c(Cl)c1)c1ccc(-c2cccc(C#N)c2)cc1,AUC(0-t) at 6 h,[1],1950 ng·h/mL
same,Kb,[4],3.1 nM
same,pKi,[2],8.48
same,pKi,[3],5.97
N#Cc1cccc(-c2ccc(N(CCN3CC[C@@H](O)C3)C(=O)Nc3ccc(F)c(Cl)c3)cc2)c1,AUC(0-t) at 6 h,[1],1080 ng·h/mL
same,pKi,[2],8.15
CC(C)C(=O)N1CCC(N(C(=O)Nc2ccc(F)c(C(F)(F)F)c2)c2ccc(-c3cccc(C#N)c3)cc2)CC1,pKi,[2],6.43
N#Cc1cccc(-c2ccc(N(CCN3CC[C@@H](O)C3)C(=O)Nc3ccc(C(F)(F)F)c(F)c3)cc2)c1,AUC(0-t) at 6 h,[1],5470 ng·h/mL
same,Body weight gain,Rattus norvegicus [5],1.2 g
same,Kb,[4],2 nM
same,pKi,[2],8.05
same,Food intake,Mus musculus [6],16%
same,Food intake,Rattus norvegicus [7],13.2%
same,Body weight gain,Rattus norvegicus [8],2.2 g
same,Food intake,Mus musculus [9],17%
same,Food intake,Mus musculus [10],14%
same,Food intake,Rattus norvegicus [11],16.9%
N#Cc1cccc(-c2ccc(N(CCN3CC[C@@H](O)C3)C(=O)Nc3ccc(F)c(C(F)(F)F)c3)cc2)c1,AUC(0-t) at 6 h,[1],2790 ng·h/mL
same,Kb,[4],8 nM
same,pKi,[2],8.74
N#Cc1cccc(-c2ccc(N(CCN3CC[C@@H](O)C3)C(=O)Nc3cc(Cl)cc(Cl)c3)cc2)c1,AUC(0-t) at 6 h,[1],1850 ng·h/mL
same,pKi,[2],7.96
CCS(=O)(=O)N1CCC(N(C(=O)Nc2ccc(F)c(C(F)(F)F)c2)c2ccc(-c3cccc(C#N)c3)cc2)CC1,pKi,[2],6.78
CN(C)CCN(C(=O)Nc1ccc(C(F)(F)F)c(F)c1)c1ccc(-c2cccc(C#N)c2)cc1,AUC(0-t) at 6 h,[1],4800 ng·h/mL
same,pKi,[2],8.22
CNCCN(C(=O)Nc1ccc(F)c(Cl)c1)c1ccc(-c2cccc(C#N)c2)cc1,Kb,[4],6.2 nM
same,pKi,[2],8.22
